The values that follow come from patent publication US20200055839A1 (priority 2017, published 2020).

The structures appear in SMILES notation.

This test concerns NL-RLuc virus. Briefly: Inhibition of HIV replication (NL-RLuc virus, luciferase readout in MT-2 cells). The test is classed as cell-based. The note with it: Human immunodeficiency virus 1, MT2, 120 h, MT-2 cells infected with NL-RLuc virus, 5 days of incubation, 10% FBS, at least 2 experiments. From the text: Inhibition of HIV Replication:
A recombinant NL-RLuc proviral clone was constructed in which a section of the nef gene form NL4-3 was replaced with the Renilla Luciferase gene. This virus is fully infectious and can undergo multiple cycles of replication in cell culture. In addition, the luciferous reporter provides a simple and easy method for quantitating the extent of virus growth and consequently, the antiviral activity of test compounds. The plasmid pNLRLuc contains the proviral NL-Rluc DNA cloned into pUC18 at the PvuII site. The NL-RLuc virus was prepared by transfection of 293T cells with the plasmid pNLRLuc. Transfections were performed using the LipofectAMINE PLUS kit form Invitrogen (Carlsbad, Calif.) according to the manufacturer and the virus generated was titered in MT-2 cells. For susceptibility analyses, the titrated virus was used to infect MT-2 cells in the presence of compound, and after 5 days of incubation, cells were processed and quantitated for virus growth by the amount of expressed luciferase. Assay media was RPMI 1640 supplemented with 10% heat inactivated fetal bovine serum (FBS), 100 units/ml penicillin G/100 units/ml streptomycin, 10 mM HEPES buffer pH 7.55 and 2 mM L-glutamine. The results form at least 2 experiments were used to calculate the EC50 values. Luciferase was quantitated using the Dual Luciferase kit form Promega (Madison, Wis.). Susceptibility of viruses to compounds was determined by incubation in the presence of serial dilutions of the compound. The 50% effective concentration (EC50) was calculated by using the exponential form of the median effect equation where (Fa)=1/[1+(ED50/drug conc.)^m](Johnson V A, Byington R T. Infectivity Assay. In Techniques in HIV Research. ed. Aldovini A, Walker B D. 71-76. New York: Stockton Press. 1990).
On to `COc1c(F)cc(-c2c(CNCC3CCOCC3)nc(Cl)c([C@H](OC(C)(C)C)C(=O)O)c2N2CCC(C)(C)CC2)cc1F` [Example 203, (S)-2-(tert-Butoxy)-2-(2-chloro-5-(3,5-difluoro-4-methoxyphenyl)-4-(4,4-dimethylpiperidin-1-yl)-6-((((tetrahydro-2H-pyran-4-yl)methyl)amino)methyl)pyridin-3-yl)acetic acid], for which the EC50 (usually the midpoint of the concentration-response curve) was 7 nM. Turning to `CCCCNc1ccc(-c2cnc(C)c([C@H](OC(C)(C)C)C(=O)O)c2N2CCC(C)(C)CC2)nc1` [Example 441, (S)-2-(tert-Butoxy)-2-(5-(butylamino)-4′-(4,4-dimethylpiperidin-1-yl)-6′-methyl-[2, 3′-bipyridin]-5′-yl)acetic acid], the response was half-maximal at 7 nM (EC50). In turn, `Cc1ncc(-c2cc(C(F)(F)F)c(OCCc3ccc(F)cc3)cn2)c(N2CCC(C)(C)CC2)c1[C@H](OC(C)(C)C)C(=O)O` [Example 244, (S)-2-(tert-Butoxy)-2-(4′-(4,4-dimethylpiperidin-1-yl)-5-(4-fluorophenethoxy)-6′-methyl-4-(trifluoromethyl)-[2, 3′-bipyridin]-5′-yl)acetic acid] registered an EC50 of 3 nM.

`Cc1nc(N)c(-c2ccc(OCCc3ccc(F)cc3)c(F)c2F)c(N2CCC(C)(C)CC2)c1[C@H](OC(C)(C)C)C(=O)O` (single isomer, unassigned) [Example 70] registered an EC50 of 2 nM. With `CCc1ccc(CCOc2ccc(-c3cnc(C)c([C@H](OC(C)(C)C)C(=O)O)c3N3CCC(C)(C)CC3)nc2)cc1` [Example 322, (2S)-2-(tert-butoxy)-2-[4′-(4,4-dimethylpiperidin-1-yl)-5-[2-(4-ethylphenyl)ethoxy]-6′-methyl-[2,3′-bipyridine]-5′-yl]acetic acid], a half-maximal response (EC50) required 0.7 nM.

`CCCCN(C)c1ccc(-c2cnc(C)c([C@H](OC(C)(C)C)C(=O)O)c2N2CCC(C)(C)CC2)nc1` [Example 442, (S)-2-(tert-Butoxy)-2-(5-(butyl(methyl)amino)-4′-(4,4-dimethylpiperidin-1-yl)-6′-methyl-[2, 3′-bipyridin]-5′-yl)acetic acid] showed an EC50 of 5 nM. As to `Cc1ncc(-c2ccccc2-c2ccccc2)c(N2CCC(C)(C)CC2)c1[C@H](OC(C)(C)C)C(=O)O` [Example 138, (2S)-2-(5-{[1,1′-Biphenyl]-2-yl}-4-(4,4-dimethylpiperidin-1-yl)-2-methylpyridin-3-yl)-2-(tert-butoxy)acetic acid], the EC50 worked out at 71 nM. The result for `COc1ccc(-c2cnc(C)c([C@H](OC(C)(C)C)C(=O)O)c2N2CCC(C)(C)CC2)cc1C` [Example 178, (2S)-2-(tert-Butoxy)-2-[4-(4,4-dimethylpiperidin-1-yl)-5-(4-methoxy-3-methylphenyl)-2-methylpyridin-3-yl]acetic acid] reads 2 nM. On to `Cc1nc(OCC(C)C)ccc1-c1cnc(C)c([C@H](OC(C)(C)C)C(=O)O)c1N1CCC(C)(C)CC1` [Example 418, (S)-2-(tert-Butoxy)-2-(4-(4,4-dimethylpiperidin-1-yl)-6′-isobutoxy-2′,6-dimethyl-[3, 3′-bipyridin]-5-yl)acetic acid], for which the EC50 worked out at 107 nM.

Regarding `CCC(C)(C)O[C@H](C(=O)O)c1c(C)ncc(-c2ccc(OCCc3ccc(F)cc3)cc2)c1N1CCC(C)(C)CC1` [Example 18, (2S)-2-[4-(4,4-Dimethylpiperidin-1-yl)-5-{4-[2-(4-fluorophenyl)ethoxy]phenyl}-2-methylpyridin-3-yl]-2-[(2-methylbutan-2-yl)oxy]acetic acid], the response was half-maximal at 4 nM (EC50). In the case of `CC1(C)CCN(c2c(-c3ccc(F)c(F)c3)cnc(Cl)c2[C@H](OC(C)(C)C)C(=O)O)CC1` [Example 208, (S)-2-(tert-Butoxy)-2-(2-chloro-5-(3,4-difluorophenyl)-4-(4,4-dimethylpiperidin-1-yl)pyridin-3-yl)acetic acid], a half-maximal response (EC50) required 35 nM. Consider `COc1cnc(-c2cnc(C)c([C@H](OC(C)(C)C)C(=O)O)c2N2CCC(C)(C)CC2)nc1` [Example 228, (S)-2-(tert-Butoxy)-2-(4-(4,4-dimethylpiperidin-1-yl)-5-(5-methoxypyrimidin-2-yl)-2-methylpyridin-3-yl)acetic acid], for which the EC50 is 52 nM.

Take `Cc1ncc(-c2ccc(NCC(C)C)nc2)c(N2CCC(C)(C)CC2)c1[C@H](OC(C)(C)C)C(=O)O` [Example 436, (S)-2-tert-Butoxy-2-(4-(4,4-dimethylpiperidin-1-yl)-6′-(isobutylamino)-6-methyl-3, 3′-bipyridin-5-yl)acetic acid]: the EC50 amounted to 7 nM. As for `Cc1ncc(-c2ccccn2)c(N2CCC(C)(C)CC2)c1[C@H](OC(C)(C)C)C(=O)O` [Example 186, (2S)-2-(tert-Butoxy)-2-[4′-(4,4-dimethylpiperidin-1-yl)-6′-methyl-[2, 3′-bipyridine]-5′-yl]acetic acid], the figure is 37 nM; as for `COc1ccc(CCOc2ccc(-c3cnc(C)c([C@H](OC(C)(C)C)C(=O)O)c3N3CCC(C)(C)CC3)nc2)cc1` [Example 293, (2S)-2-(tert-butoxy)-2-[4′-(4,4-dimethylpiperidin-1-yl)-5-[2-(4-methoxyphenyl)ethoxy]-6′-methyl-[2,3′-bipyridine]-5′-yl]acetic acid], 1 nM; as for `Cc1ncc(-c2ccc(OCCc3ccccc3)cc2)c(N2CCC(C)(C)CC2)c1[C@H](OC(C)(C)C)C(=O)O` [Example 265, (S)-2-(tert-Butoxy)-2-(4-(4,4-dimethylpiperidin-1-yl)-2-methyl-5-(4-phenethoxyphenyl)pyridin-3-yl)acetic acid], 1 nM. Turning to `Cc1cccnc1Nc1nc(C)c([C@H](OC(C)(C)C)C(=O)O)c(N2CCC(C)(C)CC2)c1-c1ccc(OCCc2ccc(F)cc2)cc1` [Example 65, (S)-2-(tert-Butoxy)-2-(4-(4,4-dimethylpiperidin-1-yl)-5-(4-(4-fluorophenethoxy)phenyl)-2-methyl-6-((3-methylpyridin-2-yl)amino)pyridin-3-yl)acetic acid], the EC50 came out at 2 nM. As for `COc1ccc(F)cc1-c1cnc(C)c([C@H](OC(C)(C)C)C(=O)O)c1N1CCC(C)(C)CC1` [Example 151, (2S)-2-(tert-Butoxy)-2-[4-(4,4-dimethylpiperidin-1-yl)-5-(5-fluoro-2-methoxyphenyl)-2-methylpyridin-3-yl]acetic acid], the figure is 6 nM; as for `Cc1ncc(-c2ncc(OCCc3ccc(F)cc3)cn2)c(N2CCC(C)(C)CC2)c1[C@H](OC(C)(C)C)C(=O)O` [Example 14, (S)-2-(tert-Butoxy)-2-(4-(4,4-dimethylpiperidin-1-yl)-5-(5-(4-fluorophenethoxy)pyrimidin-2-yl)-2-methylpyridin-3-yl)acetic acid], 2 nM; as for `CC1(C)CCN(c2c(-c3ccccn3)cnc(Cl)c2[C@H](OC(C)(C)C)C(=O)O)CC1` [Example 223, (2S)-2-(tert-Butoxy)-2-[6′-chloro-4′-(4,4-dimethylpiperidin-1-yl)-[2, 3′-bipyridine]-5′-yl]acetic acid], 15 nM. In the case of `Cc1ncc(-c2cccc(F)c2Cl)c(N2CCC(C)(C)CC2)c1[C@H](OC(C)(C)C)C(=O)O` [Example 165, (2S)-2-(tert-Butoxy)-2-[5-(2-chloro-3-fluorophenyl)-4-(4,4-dimethylpiperidin-1-yl)-2-methylpyridin-3-yl]acetic acid], the response was half-maximal at 8 nM (EC50).
